Marks after values point to notes of the source that are not given here.
Key:
Format in all cases: in vivo
[1] = tested on: mice with acute liver injury induced by D-galactose; test: Protection against liver injury (D-galactose-induced acute liver injury); conditions: intragastric, 10 mg/kg baicalin or equivalent, 5 days, D-galactose 0.5 g/kg i.p. on day 4
Procedure: 40 healthy mice were randomly divided into 4 groups, a normal group, a model group, a baicalin group and a baicalin magnesium group. Mice in the baicalin group were administrated with baicalin at a dose of 10 mg/kg, and mice in the baicalin magnesium group were administrated with baicalin magnesium at a dose equivalent to 10 mg/kg of baicalin. Mice in the normal group and the model group were intragastrically administrated with the same volume of normal saline for 5 days. On the fourth day, mice in the model group and the administration groups were intraperitoneally injected with 0.5 g/kg of D-galactose, and mice in the normal group were intraperitoneally injected with the same volume of normal saline. The activities of ALT, AST, SOD and GSH-Px in the serum and the content of MDA were detected. Variance analysis was performed by SPSS-19.0 statistical software.

[2] = tested on: mice with cerebral ischemia; test: Learning and memory function in mice with cerebral ischemia (water maze test); conditions: i.p. 12.5 mg/kg baicalin or equivalent for 12 days after carotid clipping 20 min
Procedure: 80 healthy mice were randomly divided into 4 groups each having 20 mice, a model group, a sham-operation group, a baicalin group and a baicalin magnesium group. For the model group, mice were intraperitoneally injected with 1% of pentobarbital sodium for anesthesia, and then the left and right common carotid arteries were exposed and separated. The left and right arteries were immediately clipped with a vessel clamp for 20 minutes. The vessel clamp then were released; arteries were sutured; and the mice were put back in the cage for breeding. For the sham-operation group, the left and right common carotid arteries were exposed by the same method as above but without clipping. The left and right arteries were sutured, and the mice were put back in the cage for breeding. For the baicalin group, the operation was the same as that for the model group, and on the second day after the operation the mice were intraperitoneally injected with 12.5 mg/kg of baicalin for successive 12 days. For the baicalin magnesium group, the operation was the same as that for the model group, and on the second day after the operation the mice were intraperitoneally injected with baicalin magnesium (at a dose equivalent to 12.5 mg/kg of baicalin) for successive 12 days. The mice in the sham-operation group and the model group were administrated with the same volume of normal saline. Water Maze Test: a circular water tank for test was 120 cm in diameter and 60 cm in height; a cylindrical platform was 10 cm in diameter and 40 cm in height; and an interior of the circular water tank was black. A camera connected to a display was provided to record the movement of mice. During the test, the water depth was 12 cm, and the water temperature was (25±2) ° C. All space signs around the maze remained unchanged throughout the test. Water Maze Test for Memory: on the day before the beginning of the test, each of mice were familiar with the water environment in the maze for 2 minutes. The mice were randomly placed in water close to walls of maze from four different quadrants (North, West, South and East, in one period of time), and the time from the mice entering water to climbing on the platform was recorded as an escape latency. […] The mice were continuously trained for 15 days at a frequency of two times of training per day. Each group of animals was subjected to a water maze test in turn. The path on the first day had two blind ends; the path on the second day had three blind ends; and the path on the third day, the fourth day and the fifth day had four blind ends. The mice were placed in water toward the walls, and the time from the mice entering water to arriving at the platform (latency) and the number of entering the blind ends were recorded. […]

[3] = Pharmacokinetic experiments (no data given); conditions: in words only

Row | SMILES | ALT (serum) [1] | AST (serum) [1] | GSH-Px (serum) [1] | MDA (serum) [1] | SOD (serum) [1] [U/L] | Escape Latency [2] | Number of Errors [2] | Adsorption rate compared to baicalin [3]
1 | O=C(O)C1O[C@@H](Oc2cc3oc(-c4ccccc4)cc(=O)c3c(O)c2O)C(O)[C@@H](O)[C@@H]1O (stereo partly drawn) [Baicalin Magnesium, baicalin magnesium] | 165.1 ± 8.7*^Δ U/L | 139.8 ± 13.7*^Δ U/L | 11.8 ± 0.5*^Δ U/L | 2.1 ± 0.3*^Δ nmol/L | 48.2 ± 2.9 | 26.54 ± 8.34*^Δ s | 3.82 ± 2.12*^Δ | faster adsorption rate
2 | O=C(O)[C@H]1O[C@@H](Oc2cc3oc(-c4ccccc4)cc(=O)c3c(O)c2O)[C@H](O)[C@@H](O)[C@@H]1O [Baicalin] | 191.4 ± 19.4 U/L | 168.5 ± 11.9 U/L | 9.8 ± 0.9 U/L | 3.1 ± 0.4 nmol/L | 45.2 ± 2.9 | 38.88 ± 11.99 s | 4.56 ± 3.78 | –
